Test results reported in PubChem BioAssay AID2060906 (Molecular Pharmacology Branch, DTP, NCI, 2025).

System: 485176-168-R4-J1-PDC complex spheroid growth
Assay: Anticancer human tumor 485176-168-R4-J1-PDC patient-derived pancreatic adenocarcinoma cell line growth inhibition [RAS]
Settings: for IC50: curve of first compound; for viability, T/C: stronger effect = lower value
How it was run: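 Agents were tested in combination matrices in half-log decrements from a top concentration at or near clinical Cmax (10 microM if undetermined). Targets were multi-cell spheroids of tumour lines plus HUVEC and MSC stromal cells.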

[1] = second compound 0.0316 µM, first compound 0.0316 µM
[2] = second compound 0.0316 µM, first compound 0.1 µM
[3] = second compound 0.0316 µM, first compound 0.316 µM
[4] = second compound 0.0316 µM, first compound 1 µM
[5] = second compound 0.0316 µM, first compound 3.16 µM
[6] = second compound 0.0316 µM, first compound 10 µM
[7] = second compound 0.1 µM, first compound 0.0316 µM
[8] = second compound 0.1 µM, first compound 0.1 µM
[9] = second compound 0.1 µM, first compound 0.316 µM
[10] = second compound 0.1 µM, first compound 1 µM
[11] = second compound 0.1 µM, first compound 3.16 µM
[12] = second compound 0.1 µM, first compound 10 µM
[13] = second compound 0.316 µM, first compound 0.0316 µM
[14] = second compound 0.316 µM, first compound 0.1 µM
[15] = second compound 0.316 µM, first compound 0.316 µM
[16] = second compound 0.316 µM, first compound 1 µM
[17] = second compound 0.316 µM, first compound 3.16 µM
[18] = second compound 0.316 µM, first compound 10 µM
[19] = second compound 1 µM, first compound 0.0316 µM
[20] = second compound 1 µM, first compound 0.1 µM
[21] = second compound 1 µM, first compound 0.316 µM
[22] = second compound 1 µM, first compound 1 µM
[23] = second compound 1 µM, first compound 3.16 µM
[24] = second compound 1 µM, first compound 10 µM
[25] = second compound 3.16 µM, first compound 0.0316 µM
[26] = second compound 3.16 µM, first compound 0.1 µM
[27] = second compound 3.16 µM, first compound 0.316 µM
[28] = second compound 3.16 µM, first compound 1 µM
[29] = second compound 3.16 µM, first compound 3.16 µM
[30] = second compound 3.16 µM, first compound 10 µM
[31] = second compound 10 µM, first compound 0.0316 µM
[32] = second compound 10 µM, first compound 0.1 µM
[33] = second compound 10 µM, first compound 0.316 µM
[34] = second compound 10 µM, first compound 1 µM
[35] = second compound 10 µM, first compound 3.16 µM
[36] = second compound 10 µM, first compound 10 µM
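Further: spheroids exposed to compounds for seven days before readout.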
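Wherever viability, T/C is given: luminescence viability expressed relative to DMSO vehicle wells set as 100%.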

## CC(C)NCC(C(=O)N1CCN(c2ncnc3c2C(C)CC3O)CC1)c1ccc(Cl)cc1 (stereo unspecified) + C#Cc1c(F)ccc2cc(O)cc(-c3ncc4c(N5CC6CCC(C5)N6)nc(OCC56CCCN5CC(F)C6)nc4c3F)c12
Second compound 0.0316 µM
  IC50: 3.29 µM
Second compound 0.1 µM
  IC50: 0.851 µM
Second compound 0.316 µM
  IC50: 2.77 µM
Second compound 1 µM
  IC50: 0.884 µM
Second compound 3.16 µM
  IC50: 2.12 µM
Second compound 10 µM
  IC50: 1.51 µM
[1]
  viability, T/C: 113%
[2]
  viability, T/C: 99.2%
[3]
  viability, T/C: 84.7%
[4]
  viability, T/C: 70.1%
[5]
  viability, T/C: 47.3%
[6]
  viability, T/C: 38.5%
[7]
  viability, T/C: 99%
[8]
  viability, T/C: 127%
[9]
  viability, T/C: 72.8%
[10]
  viability, T/C: 59.8%
[11]
  viability, T/C: 45.6%
[12]
  viability, T/C: 33.4%
[13]
  viability, T/C: 109%
[14]
  viability, T/C: 96.5%
[15]
  viability, T/C: 72.7%
[16]
  viability, T/C: 65.4%
[17]
  viability, T/C: 51.8%
[18]
  viability, T/C: 31.1%
[19]
  viability, T/C: 92.2%
[20]
  viability, T/C: 105%
[21]
  viability, T/C: 72.4%
[22]
  viability, T/C: 51.4%
[23]
  viability, T/C: 48.5%
[24]
  viability, T/C: 35.3%
[25]
  viability, T/C: 99.3%
[26]
  viability, T/C: 96.1%
[27]
  viability, T/C: 82.9%
[28]
  viability, T/C: 53.8%
[29]
  viability, T/C: 52%
[30]
  viability, T/C: 31%
[31]
  viability, T/C: 104%
[32]
  viability, T/C: 87.9%
[33]
  viability, T/C: 82.6%
[34]
  viability, T/C: 55.8%
[35]
  viability, T/C: 36.8%
[36]
  viability, T/C: 33.9%

## CCN1CCN(Cc2ccc(Nc3ncc(F)c(-c4cc(F)c5nc(C)n(C(C)C)c5c4)n3)nc2)CC1 + C#Cc1c(F)ccc2cc(O)cc(-c3ncc4c(N5CC6CCC(C5)N6)nc(OCC56CCCN5CC(F)C6)nc4c3F)c12
Second compound 0.0316 µM
  IC50: > 1 µM
Second compound 0.1 µM
  IC50: > 1 µM
Second compound 0.316 µM
  IC50: > 1 µM
Second compound 1 µM
  IC50: > 1 µM
Second compound 3.16 µM
  IC50: > 1 µM
Second compound 10 µM
  IC50: > 1 µM
Second compound 0.0316 µM, first compound 0.00316 µM
  viability, T/C: 91.1%
Second compound 0.0316 µM, first compound 0.01 µM
  viability, T/C: 83.4%
[1]
  viability, T/C: 101%
[2]
  viability, T/C: 100%
[3]
  viability, T/C: 73.9%
[4]
  viability, T/C: 64.9%
Second compound 0.1 µM, first compound 0.00316 µM
  viability, T/C: 117%
Second compound 0.1 µM, first compound 0.01 µM
  viability, T/C: 109%
[7]
  viability, T/C: 79.7%
[8]
  viability, T/C: 85.1%
[9]
  viability, T/C: 78.8%
[10]
  viability, T/C: 55.4%
Second compound 0.316 µM, first compound 0.00316 µM
  viability, T/C: 97.1%
Second compound 0.316 µM, first compound 0.01 µM
  viability, T/C: 95.6%
[13]
  viability, T/C: 90.7%
[14]
  viability, T/C: 104%
[15]
  viability, T/C: 84.3%
[16]
  viability, T/C: 63.9%
Second compound 1 µM, first compound 0.00316 µM
  viability, T/C: 96.8%
Second compound 1 µM, first compound 0.01 µM
  viability, T/C: 101%
[19]
  viability, T/C: 101%
[20]
  viability, T/C: 86.8%
[21]
  viability, T/C: 72%
[22]
  viability, T/C: 70.1%
Second compound 3.16 µM, first compound 0.00316 µM
  viability, T/C: 110%
Second compound 3.16 µM, first compound 0.01 µM
  viability, T/C: 92.8%
[25]
  viability, T/C: 81.5%
[26]
  viability, T/C: 92.8%
[27]
  viability, T/C: 77.5%
[28]
  viability, T/C: 61.3%
Second compound 10 µM, first compound 0.00316 µM
  viability, T/C: 103%
Second compound 10 µM, first compound 0.01 µM
  viability, T/C: 95.5%
[31]
  viability, T/C: 84.4%
[32]
  viability, T/C: 79.6%
[33]
  viability, T/C: 96.6%
[34]
  viability, T/C: 61.6%

## CC(=O)OC12COC1CC(O)C1(C)C(=O)C(O)C3=C(C)C(OC(=O)C(O)C(NC(=O)OC(C)(C)C)c4ccccc4)CC(O)(C(OC(=O)c4ccccc4)C21)C3(C)C (stereo unspecified) + C#Cc1c(F)ccc2cc(O)cc(-c3ncc4c(N5CC6CCC(C5)N6)nc(OCC56CCCN5CC(F)C6)nc4c3F)c12
Second compound 0.0316 µM
  IC50: < 0.0316 µM
Second compound 0.1 µM
  IC50: < 0.0316 µM
Second compound 0.316 µM
  IC50: < 0.0316 µM
Second compound 1 µM
  IC50: < 0.0316 µM
Second compound 3.16 µM
  IC50: < 0.0316 µM
Second compound 10 µM
  IC50: < 0.0316 µM
[1]
  viability, T/C: 18.5%
[2]
  viability, T/C: 15.3%
[3]
  viability, T/C: 14.6%
[4]
  viability, T/C: 13.5%
[5]
  viability, T/C: 18.5%
[6]
  viability, T/C: 21.8%
[7]
  viability, T/C: 19.1%
[8]
  viability, T/C: 14.5%
[9]
  viability, T/C: 13.7%
[10]
  viability, T/C: 14.9%
[11]
  viability, T/C: 19.8%
[12]
  viability, T/C: 21.2%
[13]
  viability, T/C: 15.1%
[14]
  viability, T/C: 12.4%
[15]
  viability, T/C: 13.4%
[16]
  viability, T/C: 11.6%
[17]
  viability, T/C: 16.6%
[18]
  viability, T/C: 19.4%
[19]
  viability, T/C: 17%
[20]
  viability, T/C: 15.8%
[21]
  viability, T/C: 12.8%
[22]
  viability, T/C: 11.8%
[23]
  viability, T/C: 19.2%
[24]
  viability, T/C: 20.6%
[25]
  viability, T/C: 20.6%
[26]
  viability, T/C: 16.5%
[27]
  viability, T/C: 15.2%
[28]
  viability, T/C: 13.8%
[29]
  viability, T/C: 16.5%
[30]
  viability, T/C: 20.6%
[31]
  viability, T/C: 16.5%
[32]
  viability, T/C: 12.2%
[33]
  viability, T/C: 13.3%
[34]
  viability, T/C: 11.7%
[35]
  viability, T/C: 16%
[36]
  viability, T/C: 19%
